We go through 7 compounds from patent US9447114B2, “Thieno- and furo[2,3-d]pyrimidine-2,4[1H,3H]-dione derivatives” (Hydra Biosciences, Inc., priority 2014, dated 2016).

In test [1] the target is T1, TRPC5 channel (Homo sapiens (Human), UniProt Q9UL62). The experiment in a line: High throughput screening assay: intracellular Ca2+ rise, Fluo4 cell-based fluorescence. The conditions noted are these: HEK293/TREx cells inducibly expressing TRPC5, high-Ca2+ Ringer, 14 mM Ca2+ final, triplicate, 0.027-20 μM. The text has this: The assay depended on detection of the rise in intracellular Ca2+ concentration ([Ca2+]i) following channel activation in cells inducibly expressing the TRPC5 channel. Ca2+ rise was quantified with the use of fluorescent Ca2+ indicators that were loaded into cells and thereafter indicated the [Ca2+]i Ca2+ influx followed activation of the TRPC5 channel. Compounds inhibiting the [Ca2+]i rise were considered hits for further investigation.
The commercially available HEK293/TREx line (Invitrogen) was stably transfected with a TRPC5 construct and screened by conventional calcium imaging to find clones with TRPC5 expression following stimulation with 1 μg/ml tetracycline. These cells were maintained in the growth medium recommended by the manufacturer supplemented with 100 μg/ml hygromycin to promote retention of the TRPC5 construct. After growing to near confluency, cells were plated at a density of ˜35,000 cells/well in 384 well CellBind plates (Corning) in the presence of 1 μg/ml tetracycline, and allowed to grow for 20-30 hrs. A nearly confluent monolayer resulted. Cells were then loaded with Ca2+ dye: Fura-2/AM or Fluo4/AM was added to the wells to a final concentration of 4 μM or 0.5 μM, respectively, and incubated for 80 min or 60 min, respectively, at room temperature. Supernatant was then removed from the cells by inverting plates with a sharp flick, and 25 μl Hank's Balanced Salt Solution (HBSS; 0.185 g/l D-glucose, 0.9767 g/l MgS04 (anhydrous), 0.4 g/l KCl, 0.06 g/l KH2PO4 (anhydrous), 0.35 g/l NaHCO3, 8.0 g/l NaCl, and 0.04788 g/l Na2HPO4 (anhydrous); pH 7.4) was then added to each well. Following ˜0.5 hour for recovery from loading, cells were assayed using the Hamamatsu FDSS 6000 system, which permitted illumination alternately at 340 nm and 380 nm for Fura-2 experiments, or at 485 nm for Fluo4 experiments. Frames were acquired at a rate of 0.2 Hz. During the assay, the plates were continuously vortexed, with pipette mixing of wells following addition of each reagent. For the screening assay, 26 μl of a diluted compound stock (at 50 μM) was added to each well for 2 minutes following the collection of a short (4 frame) baseline. 13 μl 62 mM high-Ca2+Ringer solution (4.17 ml of normal ringer (with 2 mM Ca2+) plus 5.83 ml of isotonic calcium ringer (105 mM Ca2+; in this ringer all sodium has been replaced with calcium)) was then added to each well, achieving a final concentration of 14 mM Ca2+ and 10 μM test compound. Data was collected for ˜3 minutes following addition of high Ca2+Ringer, where the fluorescent intensity (for Fluo4) and the F340/F380 ratio (for Fura-2) were proportional to the [Ca2+]i Negative controls consisted of HEK293/TREx TRPC5 cells exposed to high Ca2+ solution, but no compound. Positive control conditions consisted of addition of 2-APB, a promiscuous blocker of TRPC5 and other channels, to columns 23 and 24 of the plates, to a final concentration of 200 μM. These controls defined a screening window, and “hits” were defined as those compounds inhibiting the fluorescence response by at least 40%. IC50 values were determined for compounds defined as “hits.” The Fluo4 cell-based fluorescence assay was used to determine the intracellular Ca2+ concentration in the presence of varying drug concentration. Final concentrations of compounds tested were 20 μM, 6.667 μM, 2.222 μM, 0.741 μM, 0.247 μM, 0.082 μM, and 0.027 μM. Compounds were tested in triplicate at all concentrations. Standard software was used to fit IC50 curves.
Additionally or alternatively, efficacy can be represented as % inhibition in the presence (of a given concentration of compound) versus the absence of compound or in comparison to a control compound. For example, efficacy can be represented as % inhibition of ion flux in the presence versus the absence of compound.

The target of test [2] is T1, TRPC5 channel. The experiment in a line: Whole-cell patch clamp of TRPC5 current. It is filed as cell-based. The conditions noted are these: TRPC5-expressing HEK293 TREx cells, current activated by 80 μM LaCl3 and 1.4 μM free Ca2+ in pipette, IC50 estimated. The text has this:
Patch clamp experiments permit the detection of currents through the TRPC5 channel in the cell line described above. In normal whole-cell patch clamp recordings, a glass electrode is brought into contact with a single cell and a high-resistance (gigaohm) seal is established with the cell membrane. The membrane is then ruptured to achieve the whole-cell configuration, permitting control of the voltage of the cell membrane and measurement of currents flowing across the membrane using the amplifier attached to the electrode and resulting in the replacement of cytoplasm with the pipette solution. A perfusion system permits control of the extracellular solution, including the addition of blockers and activators of the current. The current can be activated by including 1.4 μM free Ca^2+ in the pipette (intracellular) solution, and 80 μM LaCl3 in the extracellular solution.
TRPC5 cells were induced 20-48 hours, removed from growth plates, and replated at low density (to attain good single-cell physical separation) on glass coverslips for measurement. In some cases, cells were grown in low density overnight on glass coverslips. Patch clamp recordings were made in the whole-cell mode with a holding potential of −40 mV. Every 5 seconds, a voltage ramp was applied from −120 to +100 mV, 400 ms in duration. Currents elicited were quantified at −80 mV and +80 mV. The internal solution consisted of 140 mM cesium aspartate, 10 mM HEDTA, 2 mM CaCl2, 2.27 mM MgCl2 and 10 mM HEPES, pH 7.2, with 1,400 nM calculated free Ca^2+. The external solution consisted of 150 mM NaCl, 4.5 mM KCl, 1 mM MgCl2, 2 mM CaCl2 10 mM HEPES, 10 mM glucose, 1 mM EGTA, pH 7.4. Upon addition of LaCl3, TRPC5 current was induced only in TRPC5-expressing cells and not in parental HEK293 TREx cells. Removal of the LaCl3 stimulus causes most of the current to go away. Potential blockers were tested for ability to block both inward and outward currents in the continued presence of LaCl3.
IC50 of a compound of Formula (I) was estimated by testing the compound at 5 μM and 500 nM. […] IC50 for a compound of Formula (I) between 500 nM and 5 μM was similarly estimated.

A word on the IC50: it is the concentration that inhibits the measured activity by half.

T1 sequence (Q9UL62 whole entry): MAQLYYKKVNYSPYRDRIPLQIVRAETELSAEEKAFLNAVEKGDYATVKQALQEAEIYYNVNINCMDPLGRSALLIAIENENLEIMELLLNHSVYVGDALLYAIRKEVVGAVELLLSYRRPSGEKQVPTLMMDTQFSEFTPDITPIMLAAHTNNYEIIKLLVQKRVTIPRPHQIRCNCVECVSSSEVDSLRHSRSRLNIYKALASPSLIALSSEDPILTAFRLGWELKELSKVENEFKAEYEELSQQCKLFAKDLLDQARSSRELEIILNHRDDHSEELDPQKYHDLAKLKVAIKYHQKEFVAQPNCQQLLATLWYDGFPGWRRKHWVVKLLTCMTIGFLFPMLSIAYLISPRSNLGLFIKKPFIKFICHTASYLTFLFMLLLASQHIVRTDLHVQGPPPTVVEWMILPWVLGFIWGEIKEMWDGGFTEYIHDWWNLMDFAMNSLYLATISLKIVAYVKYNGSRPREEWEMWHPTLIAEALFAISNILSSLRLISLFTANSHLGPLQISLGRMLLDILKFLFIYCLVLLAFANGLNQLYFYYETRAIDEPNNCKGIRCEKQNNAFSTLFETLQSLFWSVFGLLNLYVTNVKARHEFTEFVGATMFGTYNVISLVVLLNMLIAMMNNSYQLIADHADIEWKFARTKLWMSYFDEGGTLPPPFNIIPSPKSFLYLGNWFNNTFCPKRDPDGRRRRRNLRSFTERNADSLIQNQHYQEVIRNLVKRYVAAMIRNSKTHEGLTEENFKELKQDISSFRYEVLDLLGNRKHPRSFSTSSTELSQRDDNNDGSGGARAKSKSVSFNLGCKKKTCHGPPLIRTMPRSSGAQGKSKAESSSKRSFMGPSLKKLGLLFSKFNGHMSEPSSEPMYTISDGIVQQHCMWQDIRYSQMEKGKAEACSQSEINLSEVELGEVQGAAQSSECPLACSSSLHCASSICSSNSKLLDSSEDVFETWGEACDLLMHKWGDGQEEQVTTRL

For `Cn1c(=O)n(CCCO)c(=O)c2c(Cc3ccc(Cl)cc3)c(-c3cccc(Cl)c3)oc21` [Compound 27, 5-(4-chlorobenzyl)-6-(3-chlorophenyl)-3-(3-hydroxypropyl)-1-methylfuro[2,3-d]pyrimidine-2,4(1H,3H)-dione], the results for the 50% inhibitory concentration (IC50) against TRPC5 channel [1] and at TRPC5 channel [2] were 134 nM and less than 1 nM, respectively.
For the compound `Cn1c(=O)n(CCCO)c(=O)c2c(Cc3ccc(Cl)cc3)c(-c3cccc(OC(F)(F)F)c3)sc21` [Compound 26, 5-(4-chlorobenzyl)-3-(3-hydroxypropyl)-1-methyl-6-(3-(trifluoromethoxy)phenyl)thieno[2,3-d]pyrimidine-2,4(1H,3H)-dione], the half-inhibitory concentration (IC50) is 1.91 nM on TRPC5 channel [1] and less than 1 nM on TRPC5 channel [2].
`Cc1c(-c2ccc(Cl)cc2)sc2c1c(=O)n(CCCO)c(=O)n2C` [Compound 25, 6-(4-chlorophenyl)-3-(3-hydroxypropyl)-1,5-dimethylthieno[2,3-d]pyrimidine-2,4(1H,3H)-dione]: the results for the 50% inhibitory concentration (IC50) against TRPC5 channel [1] and at TRPC5 channel [2] were 168 nM and 15.7 nM, respectively.
As for `Cn1c(=O)n(CCCO)c(=O)c2c(Cc3ccc(Cl)cc3)c(-c3ccc(Cl)cc3)sc21` [Compound 24, 5-(4-chlorobenzyl)-6-(4-chlorophenyl)-3-(3-hydroxypropyl)-1-methylthieno[2,3-d]pyrimidine-2,4(1H,3H)-dione], the IC50 at TRPC5 channel [1] was 242 nM; at TRPC5 channel [2] it was 1.84 nM.
Consider `Cn1c(=O)n(CCCO)c(=O)c2c(Cc3ccc(Cl)cc3)c(Oc3cccc(OC(F)(F)F)c3)sc21` [Compound 1, 5-(4-chlorobenzyl)-3-(3-hydroxypropyl)-1-methyl-6-(3-(trifluoromethoxy)phenoxy)thieno[2,3-d]pyrimidine-2,4(1H,3H)-dione], for which the IC50 at TRPC5 channel [1] was 584 nM; on TRPC5 channel [2], less than 1 nM.
The corresponding values for `Cn1c(=O)n(CCCO)c(=O)c2c(Cc3ccc(Cl)cc3)c(Oc3cccc(Cl)c3)sc21` [Compound 2, 5-(4-chlorobenzyl)-6-(3-chlorophenoxy)-3-(3-hydroxypropyl)-1-methylthieno[2,3-d]pyrimidine-2,4(1H,3H)-dione] are 117 nM and less than 1 nM.
`Cc1c(-c2ccc(F)c(C(F)(F)F)c2)sc2c1c(=O)n(CCCO)c(=O)n2C` [Compound 6, 6-(4-fluoro-3-(trifluoromethyl)phenyl)-3-(3-hydroxypropyl)-1,5-dimethylthieno[2,3-d]pyrimidine-2,4(1H,3H)-dione]: at TRPC5 channel [1], the IC50 was less than 27 nM.
